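Tested at 5 concentrations; 48 h exposure; 96-well plates; endpoints linearly interpolated, else capped at highest concentration. Definition used: TGI = concentration required for complete inhibition of growth.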
Key:
Test in all cases: NCI anticancer screen, dose series, 48 h
OVCAR-5 ovarian = system: OVCAR-5 ovarian
PC-3 prostate = system: PC-3 prostate
LOX IMVI melanoma = system: LOX IMVI melanoma
MDA-MB-435 = system: MDA-MB-435
UACC-257 melanoma = system: UACC-257 melanoma
HOP-62 NSCLC = system: HOP-62 NSCLC
U251 CNS = system: U251 CNS
HL-60(TB) leukemia = system: HL-60(TB) leukemia
MDA-MB-231 breast = system: MDA-MB-231 breast
NCI-H522 lung = system: NCI-H522 lung
NCI-H23 lung = system: NCI-H23 lung
NCI-H226 lung = system: NCI-H226 lung
SK-MEL-5 melanoma = system: SK-MEL-5 melanoma
SK-MEL-2 melanoma = system: SK-MEL-2 melanoma
786-0 renal = system: 786-0 renal
IGROV1 ovarian = system: IGROV1 ovarian
MCF7 breast = system: MCF7 breast
SW-620 colon = system: SW-620 colon
M14 melanoma = system: M14 melanoma
TK-10 renal = system: TK-10 renal
SF-295 CNS = system: SF-295 CNS
HOP-92 NSCLC = system: HOP-92 NSCLC
OVCAR-3 ovarian = system: OVCAR-3 ovarian
T-47D breast = system: T-47D breast
OVCAR-8 ovarian = system: OVCAR-8 ovarian
NCI-H460 lung = system: NCI-H460 lung
HCC-2998 colon = system: HCC-2998 colon
MALME-3M melanoma = system: MALME-3M melanoma
RPMI-8226 leukemia = system: RPMI-8226 leukemia
MOLT-4 leukemia = system: MOLT-4 leukemia
UO-31 renal = system: UO-31 renal
NCI/ADR-RES ovarian = system: NCI/ADR-RES ovarian
SNB-19 CNS = system: SNB-19 CNS
COLO 205 colon = system: COLO 205 colon
K-562 leukemia = system: K-562 leukemia
KM12 colon = system: KM12 colon
HT29 colon = system: HT29 colon
A549 NSCLC = system: A549 NSCLC
SK-OV-3 ovarian = system: SK-OV-3 ovarian
RXF 393 renal = system: RXF 393 renal
UACC-62 melanoma = system: UACC-62 melanoma
SF-268 CNS = system: SF-268 CNS
SN12C renal = system: SN12C renal
OVCAR-4 ovarian = system: OVCAR-4 ovarian
SF-539 CNS = system: SF-539 CNS
SK-MEL-28 melanoma = system: SK-MEL-28 melanoma
MDA-N = system: MDA-N
HS 578T breast = system: HS 578T breast
EKVX NSCLC = system: EKVX NSCLC
HCT-116 colon = system: HCT-116 colon
HCT-15 colon = system: HCT-15 colon
SR leukemia = system: SR leukemia
ACHN renal = system: ACHN renal
SNB-75 CNS = system: SNB-75 CNS
DU-145 prostate = system: DU-145 prostate
CCRF-CEM leukemia = system: CCRF-CEM leukemia

Measured: TGI

Cc1cc(C23OC4COC(C)(C)OC4C2OC(C)(C)O3)nc2ccccc12 (stereo unspecified)
> 100 µM: all assays above

From PubChem BioAssay (NCI)
